The numbers were not newly measured in patent US7666658B1, “Antibody catalysis of enantio- and diastereo-selective aldol reactions” (The Scripps Research Institute, priority 1999, dated 2010), which cites them from elsewhere.

The conditions of this series: retro-aldolization of fructose-1,6-bisphosphate, reported at 4° C.

For “muscle aldolase: nature's muscle aldolase, natural enzyme cleaving fructose-1,6-bisphosphate”, the efficiency is 4.9×10^4 s^−1M^−1.
